Columns and labels:
acINV [1] = target: acINV (Allium cepa, UniProt O81083, W440Y); experiment: biochemical
acINV [2] = target: acINV (Allium cepa, UniProt O81083); experiment: biochemical

OC[C@H]1O[C@@](CO)(O[C@H]2O[C@H](CO)[C@@H](O)[C@H](O)[C@H]2O)[C@@H](O)[C@@H]1O [sucrose]
Km (acINV [1]): 8.8 ± 2.4 mM | Km (acINV [2]): 5.8 ± 1.9 mM

From paper PMC2709226 (Plant Molecular Biology, 2008)
